Measured values from patent US5874086A, “Synthesis and use for the treatment of osteoporosis” (Syntex (U.S.A,), Inc., priority 1994, dated 1999).
Where no end group is shown, it is not given here. [ ]: non-standard residue; d: D form. The star is where a group is joined. hSer(lactone) = O=C1OCC[C@@H]1N*

B1: bPTH(1-84): bovine parathyroid hormone, single polypeptide chain of 84 amino acid residues (protein, UniProt P01268 32-115, looked up)
Parathyroid hormone: AVSEIQFMHNLGKHLSSMERVEWLRKKLQDVHNFVALGASIAYRDGSSQRPRKKEDNVLVESHQKSLGEADKADVDVLIKAKPQ
modifications: Parathyroid hormone
notes: bovine parathyroid hormone, single polypeptide chain of 84 amino acid residues

Tests used:
ovariectomized rats = assay: Effect on bone mass (bone calcium) in ovariectomized rats; format: in vivo, Sprague-Dawley female rats
Experimental: Bone Dis. 5:177 181 (1984).
Adult Sprague-Dawley female rats were acclimatized, weight grouped (n=9, 10 or 12), and subjected to bilateral ovariectomy (OVX) or sham surgery. Dosing was initiated 17 days after surgery and continued for 20 days. Test compound was administered subcutaneously once a day in 2% rat serum/saline vehicle.
After 20 days of dosing, the rats were sacrificed and the right femurs excised. The femurs were cut in half and the distal half femurs (DHF) were further separated into trabecular bone (TB) and cortical bone (CB) by drilling out the trabeculae. Calcium was extracted and measured by Calcette calcium analyzer and expressed as mean bone Ca in mg/DHF/100 g body weight.
The two sample t-test was used to compare OVX and sham groups. One-way ANOVA was used to compare OVX groups, followed by Fisher's LSD multiple comparison to compare each treatment group to vehicle.

[1] = tested on: normal and osteoporotic adult female rats; details: daily subcutaneous doses; cited from earlier work
[2] = tested on: ovariectomized adult female rats; details: daily subcutaneous injections; cited from earlier work
healthy adult male rats = details: daily subcutaneous injections for 12 days; cited from earlier work
[3] = 80 μg/kg/day subcutaneously once a day, 20 days of dosing

Row | Molecule | Total Bone Calcium (% increase over OVX) (ovariectomized rats; 40 ug/kg/day, 10 d of dosing) [%] | Total Bone Calcium (% increase over OVX) (ovariectomized rats; 40 ug/kg/day, 5 d of dosing) [%] | Total Bone Calcium (% increase over OVX) (ovariectomized rats; [3]) | Whole body calcium and ash weight of individual bones [1] | further results
1 | AVSEHQLLHDKGKSIQDLRRRELLEKLLEKLHTX [Compound 49] | 93 | – | – | – | –
2 | AVSEHQLLHDKGKSIQDLRRRELLEKLLEKLP-NH2 (AVSEHQLLHDKGKSIQDLRRRELLEKLLEKLP-NH2) [Compound 42] | – | 60 | – | – | –
3 | AVSEHQLLHDKGKSIQDLRRRELLEKLLEKLHTA-OH [Compound 2] | – | – | 66-114% | – | Trabecular Bone Calcium (% increase over OVX) (ovariectomized rats; [3]): 87-102%
4 | AVSEHQLLHDKGKSIQDLRRRELLEKLLEKLHTX (AVSEHQLLHDKGKSIQDLRRRELLEKLLEKLHT[hSer(lactone)]) [Compound 4, X = hSerlac; homoserine lactone peptide] | 79 | 55 | 88-114% | – | Total Bone Calcium (% increase over OVX) (ovariectomized rats; 40 ug/kg/day, 20 d of dosing): 79-105%
5 | hPTH(1-34): N-terminal (1-34) fragment of human parathyroid hormone (SVSEIQLMHNLGKHLNSMERVEWLRKKLQDVHNF; Parathyroid hormone; UniProt P01270 32-65, looked up, fragment) | – | – | – | increased | Loss of trabecular bone after ovariectomy [2]: completely reversed the loss of trabecular bone; Trabecular and cortical bone calcium and dry weight (healthy adult male rats): increased
6 | B1 | – | – | – | increased | –
